Reference: patent US10493077B2, “Fused imidazo-piperidine JAK inhibitor compound” (THERAVANCE BIOPHARMA R&D IP, LLC, priority 2017, dated 2019)

Columns and labels:
PKAC-ALPHA = target: T1, PKAC-ALPHA (Homo sapiens, UniProt P17612); experiment: Kinome screen, PKAC-ALPHA; type: binding; details: screened at 1 μM
T1 construct: made in house; host or cells: T7 phage in E. coli (BL21-derived) or HEK-293
Description: Kinase-tagged T7 phage strains were grown in parallel in 24-well blocks in an E. coli host derived from the BL21 strain. E. coli were grown to log-phase and infected with T7 phage from a frozen stock (multiplicity of infection=0.4) and incubated with shaking at 32° C. until lysis (90-150 minutes). The lysates were centrifuged (6,000×g) and filtered (0.2 μm) to remove cell debris. The remaining kinases were produced in HEK-293 cells and subsequently tagged with DNA for qPCR detection.
Streptavidin-coated magnetic beads were treated with biotinylated small molecule ligands for 30 minutes at room temperature to generate affinity resins for kinase assays. The liganded beads were blocked with excess biotin and washed with blocking buffer (SeaBlock (Pierce), 1% BSA, 0.05% Tween 20, 1 mM DTT) to remove unbound ligand and to reduce non-specific phage binding. […] Test compounds were prepared as 40× stocks in 100% DMSO and directly diluted into the assay. All reactions were performed in polypropylene 384-well plates in a final volume of 0.04 ml. […] The beads were then re-suspended in elution buffer (1×PBS, 0.05% Tween 20, 0.5 μM non-biotinylated affinity ligand) and incubated at room temperature with shaking for 30 minutes. The kinase concentration in the eluates was measured by qPCR.

[1] = system: IL-6 stimulated CCL2 (MCP-1) in human PBMCs; experiment: Cellular JAK potency assay: inhibition of IL-6 stimulated CCL2 (MCP-1) in human PBMCs; type: cell-based; details: PBMC, 48 h stimulation, read-out: pIC50, inhibition of IL-6 stimulated CCL2 (MCP-1) (converted)
Description: The potency of the test compound for inhibition of interleukin-6 (IL-6) stimulated CCL2 (MCP-1) production was measured in human peripheral blood mononuclear cells (PBMCs) isolated from human whole blood (Stanford Blood Center). Because IL-6 signals through JAK, this assay provides a distal measure of JAK cellular potency.
(1) The protocol of Assay 3 paragraph (1) was followed up to the incubation with test compounds. In the present assay, after test compounds were added to wells and incubated, IL-6 (R&D Systems; final concentration 10 ng/ml) in pre-warmed assay media (50 μL) was added.
(2) After cytokine stimulation for 48 h, cells were centrifuged at 500 g for 5 min and supernatants were removed and frozen at −80° C. To determine the inhibitory potency of the test compound in response to IL-6, supernatant CCL2 (MCP-1) concentrations were measured via ELISA (R&D Systems). IC50 values were determined from analysis of the inhibition curves of concentration of CCL2/MCP-1 vs compound concentration. Data are expressed as pIC50 (negative decadic logarithm IC50) values.

IFNγ induced pSTAT1 = experiment: Pharmacodynamic assay: inhibition of IFNγ-induced pSTAT1 in rabbit eyes; type: in vivo; details: rabbits
Description: The ability of a single intravitreal administration of test compound to inhibit interferon-gamma (IFNγ) induced phosphorylation of STAT1 protein (pSTAT1) was measured in rabbit retina/choroid tissue.
A suspension formulation was prepared by combining compound 1 of Example 2 (Form 1), with 0.5% hydroxypropyl methylcellulose (HPMC E5), 0.02% Tween 80, and 9 mg/mL sodium chloride in purified water to attain a target concentration of 20 mg/mL.
Male, New Zealand White rabbits (Liveon Biolabs, India) were used for the studies. Animals were acclimated after arrival at the research facilities (Jubilant Biosys Ltd., India). Each rabbit was given a total of two intravitreal (IVT) injections with a total dose volume of 50 μL per eye. The first IVT injection (45 μL per eye) delivered 0.9 mg of test compound or vehicle. […] On the day of the injections, rabbits were anesthetized with an intramuscular injection of ketamine (35 mg/kg) and xylazine (5 mg/kg). Once deeply anesthetized, each eye was rinsed with sterile saline and IVT injections were performed using a 0.5 mL insulin syringe (50 units=0.5 mL) with a 31-gauge needle at the supra-nasal side of the both eyes by marking the position with a Braunstein fixed caliper (2¾″) 3.5 mm from the rectus muscle and 4 mm from the limbus.
Tissues were collected 2 hours after the second IVT injection with IFNγ. Retina/choroid tissues (R/C) were collected and homogenized, and pSTAT1 levels were measured by quantitative Western Blot on the ProteinSimple WES instrument. The percent inhibition of IFNγ-induced pSTAT1 was calculated in comparison to the vehicle/vehicle and vehicle/IFNγ groups.
Male, New Zealand White rabbits (Liveon Biolabs, India) were used for the studies. Animals were acclimated after arrival at the research facilities (Jubilant Biosys Ltd., India). Each rabbit was given a total of two intravitreal (IVT) injections with a total dose volume of 50 μL per eye. The first IVT injection (45 μL per eye) delivered 500 μg, 150 μg, or 50 μg of test compound or vehicle. Two weeks later, a second IVT injection (5 μL per eye) delivered IFNγ (1 μg/eye; stock solution 1 mg/mL; Kingfisher Biotech) or vehicle for the induction of IP-10. On the day of the injections, rabbits were anesthetized with an intramuscular injection of ketamine (35 mg/kg) and xylazine (5 mg/kg). Once deeply anesthetized, each eye was rinsed with sterile saline and IVT injections were performed using a 0.5 mL insulin syringe (50 units=0.5 mL) with a 31-gauge needle at the supra-nasal side of the both eyes by marking the position with a Braunstein fixed caliper (2¾″) 3.5 mm from the rectus muscle and 4 mm from the limbus.

JAK1 = target: T2, JAK1 (Homo sapiens, UniProt P23458); experiment: LanthaScreen JAK biochemical assay, JAK1; details: read-out: JAK 1 pKi (converted)
T2 construct: GST; purchased Life Technologies
Description: A panel of four LanthaScreen JAK biochemical assays (JAK1, 2, 3 and Tyk2) were carried in a common kinase reaction buffer (50 mM HEPES, pH 7.5, 0.01% Brij-35, 10 mM MgCl2, and 1 mM EGTA). Recombinant GST-tagged JAK enzymes and a GFP-tagged STAT1 peptide substrate were obtained from Life Technologies.
Serially diluted compound was pre-incubated with each of the four JAK enzymes and the substrate in white 384-well microplates (Corning) at ambient temperature for 1 h. ATP was subsequently added to initiate the kinase reactions in 10 μL total volume, with 1% DMSO. […] The plates were allowed to incubate at ambient temperature for 1 h before being read on the EnVision reader (Perkin Elmer). Emission ratio signals (520 nm/495 nm) were recorded and utilized to calculate the percent inhibition values based on DMSO and background controls.
For dose-response analysis, percent inhibition data were plotted vs. compound concentrations, and IC50 values were determined from a 4-parameter robust fit model with the Prism software (GraphPad Software). Results were expressed as pIC50 (negative logarithm of IC50) and subsequently converted to pKi (negative logarithm of dissociation constant, Ki) using the Cheng-Prusoff equation.

T2 sequence (P23458 whole entry): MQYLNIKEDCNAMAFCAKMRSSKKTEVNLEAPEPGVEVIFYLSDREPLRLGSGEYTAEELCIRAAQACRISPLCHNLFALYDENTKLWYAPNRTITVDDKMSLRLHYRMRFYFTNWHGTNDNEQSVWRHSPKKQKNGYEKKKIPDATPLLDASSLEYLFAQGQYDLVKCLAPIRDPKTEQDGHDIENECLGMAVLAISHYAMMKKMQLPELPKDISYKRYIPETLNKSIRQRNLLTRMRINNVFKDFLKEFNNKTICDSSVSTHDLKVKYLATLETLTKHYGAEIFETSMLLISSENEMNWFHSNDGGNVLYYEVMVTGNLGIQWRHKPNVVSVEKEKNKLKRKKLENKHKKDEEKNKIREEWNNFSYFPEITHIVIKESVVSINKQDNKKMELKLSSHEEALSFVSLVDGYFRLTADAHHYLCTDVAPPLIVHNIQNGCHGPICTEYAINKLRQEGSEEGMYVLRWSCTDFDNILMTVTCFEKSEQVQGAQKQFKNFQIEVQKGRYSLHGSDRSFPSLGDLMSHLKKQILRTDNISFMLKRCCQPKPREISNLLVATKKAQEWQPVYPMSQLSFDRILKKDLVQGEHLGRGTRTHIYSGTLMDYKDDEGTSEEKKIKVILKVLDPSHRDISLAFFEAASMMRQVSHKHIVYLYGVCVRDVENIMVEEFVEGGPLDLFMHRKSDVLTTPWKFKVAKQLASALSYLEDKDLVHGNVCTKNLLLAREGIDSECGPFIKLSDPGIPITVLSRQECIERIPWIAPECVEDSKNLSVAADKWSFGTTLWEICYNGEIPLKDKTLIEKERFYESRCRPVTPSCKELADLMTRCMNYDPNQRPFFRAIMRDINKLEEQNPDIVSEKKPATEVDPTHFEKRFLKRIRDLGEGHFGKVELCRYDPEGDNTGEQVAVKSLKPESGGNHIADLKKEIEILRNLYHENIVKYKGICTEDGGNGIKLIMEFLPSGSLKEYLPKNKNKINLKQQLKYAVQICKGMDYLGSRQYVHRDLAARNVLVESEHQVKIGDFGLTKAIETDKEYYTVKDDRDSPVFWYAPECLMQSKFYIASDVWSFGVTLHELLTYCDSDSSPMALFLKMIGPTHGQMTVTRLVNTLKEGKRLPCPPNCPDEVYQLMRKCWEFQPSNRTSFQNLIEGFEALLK

SMILES: CCc1cc(O)c(F)cc1-c1cc(F)c2c(-c3nc4c([nH]3)CCN(C(=O)CN3CCOCC3)C4)n[nH]c2c1 [Compound 1, 1-(2-(6-(2-ethyl-5-fluoro-4-hydroxyphenyl)-4-fluoro-1H-indazol-3-yl)-1,4,6,7-tetrahydro-5H-imidazo[4,5-c]pyridin-5-yl)-2-morpholinoethan-1-one]
- inhibition at 1 µM (PKAC-ALPHA): 20%
- IC50 [1]: ~398 nM
- inhibition of IFNγ-induced pSTAT1 in retina/choroid (IFNγ induced pSTAT1; Form 1 suspension, 0.9 mg intravitreal, 1 week pre-treatment): 85%
- inhibition of IFNγ-induced pSTAT1 in retina/choroid (IFNγ induced pSTAT1; Form 1 suspension, single intravitreal dose, 3 month pre-treatment): 76%
- inhibition of IFNγ-induced pSTAT1 in retina/choroid (IFNγ induced pSTAT1; Form 2 suspension, 50 μg intravitreal, 2 week pre-treatment): 61%
- inhibition of IFNγ-induced pSTAT1 in retina/choroid (IFNγ induced pSTAT1; Form 2 suspension, 150 μg intravitreal, 2 week pre-treatment): 58%
- inhibition of IFNγ-induced pSTAT1 in retina/choroid (IFNγ induced pSTAT1; Form 2 suspension, 500 μg intravitreal, 2 week pre-treatment): 79%
- Ki (JAK1): 0.1 nM
